These results are taken from PubChem BioAssay AID330 (DTP/NCI, 2004).

Molecules are shown by their SMILES. “And” between values parts separate entries of the source, which are not always exact repeats. Equal values may be shown once. Toxic doses and inconclusive results are not listed.

The test system of this test is P388 leukemia ip, CD2F1 mice, survival T/C. Kind of test: NCI In Vivo Anticancer Drug Screen. Data for tumor model P388 Leukemia (intraperitoneal) in CD2F1 (CDF1) mice. As to conditions: endpoint: median survival time, higher = longer survival. The procedure, abridged:
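Mice carrying the transplanted tumor received test compound or vehicle. Survival was recorded in each group, and the value is the treated-group measurement divided by that of the vehicle-treated control group.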

The mark [1] stands for this setting: dose: 50.0 mg/kg/injection, schedule: Q01DX005 (ip), vehicle: saline with Tween-80.
Setting [2] is: dose: 100.0 mg/kg/injection, schedule: Q01DX005 (ip), vehicle: saline with Tween-80.
The mark [3] stands for this setting: dose: 200.0 mg/kg/injection, schedule: Q01DX005 (ip), vehicle: saline with Tween-80.
[4] abbreviates: dose: 50.0 mg/kg/injection, schedule: Q01DX005 (ip), vehicle: Klucel (hydroxypropylcellulose) (HPC).
The mark [5] stands for this setting: dose: 100.0 mg/kg/injection, schedule: Q01DX005 (ip), vehicle: Klucel (hydroxypropylcellulose) (HPC).
Setting [6] is: dose: 200.0 mg/kg/injection, schedule: Q01DX005 (ip), vehicle: Klucel (hydroxypropylcellulose) (HPC).
Setting [7] is: dose: 12.5 mg/kg/injection, schedule: Q04DX002 (ip), vehicle: Klucel (hydroxypropylcellulose) (HPC).
Setting [8] is: dose: 25.0 mg/kg/injection, schedule: Q04DX002 (ip), vehicle: Klucel (hydroxypropylcellulose) (HPC).
Where [9] appears, read: dose: 25.0 mg/kg/injection, schedule: Q01DX001 (ip), vehicle: saline with Tween-80.

Turning to `CCCCNCC(=O)Nc1cc(NC(=O)CNCCCC)c(C)c(NC(=O)CNCCCC)c1`, the T/C reads like this: under setting [1], 100 % of control; under setting [2], 104 % of control; under setting [3], 100 % of control.
Take `CC[C@@H]1C[C@@H]2CN3CCc4c([nH]c5ccc(OC)cc45)C(COC(=O)c4ccc(OC)c(OC)c4)(C2)C13`: the T/C reads like this: (dose: 0.5 mg/kg/injection, schedule: Q01DX009 (ip), vehicle: Klucel (hydroxypropylcellulose) (HPC)) 102 % of control; (dose: 1.0 mg/kg/injection, schedule: Q01DX009 (ip), vehicle: Klucel (hydroxypropylcellulose) (HPC)) 104 % of control; (dose: 2.0 mg/kg/injection, schedule: Q01DX009 (ip), vehicle: Klucel (hydroxypropylcellulose) (HPC)) 108 % of control; (dose: 4.0 mg/kg/injection, schedule: Q01DX009 (ip), vehicle: Klucel (hydroxypropylcellulose) (HPC)) 102 % of control.
As to `CCc1ccc[n+](-c2ccncc2CC)c1`, the T/C reads like this: (dose: 15.0 mg/kg/injection, schedule: Q01DX005 (ip), vehicle: saline) 96 % of control; (dose: 30.0 mg/kg/injection, schedule: Q01DX005 (ip), vehicle: saline) 100 % of control; (dose: 60.0 mg/kg/injection, schedule: Q01DX005 (ip), vehicle: saline) 106 % of control and 88 % of control.
For `COc1ccc(C2c3cc(OC)c(OC)cc3CC3C(=O)OCC32)cc1OC` (stereo not drawn), the T/C is 94 % of control and 107 % of control under setting [4]; 100 % of control and 97 % of control under setting [5]; 112 % of control and 103 % of control under setting [6].
With `CC(C)CCCC(C)Cc1cc(CC(C)CCCC(C)C)n(C)n1` (stereo not drawn), the T/C runs as follows: (dose: 25.0 mg/kg/injection, schedule: Q01DX005 (ip), vehicle: Klucel (hydroxypropylcellulose) (HPC)) 108 % of control and 109 % of control and 97 % of control; under setting [4], 102 % of control and 109 % of control and 96 % of control; under setting [5], 101 % of control and 105 % of control and 111 % of control; under setting [6], 108 % of control and 121 % of control and 96 % of control; (dose: 400.0 mg/kg/injection, schedule: Q01DX005 (ip), vehicle: Klucel (hydroxypropylcellulose) (HPC)) 100 % of control.
Turning to `CCN(CC)C1=Nc2ccccc2N(c2ccccc2)C(N2CCCCC2)=C1`, the T/C is 99 % of control under setting [7]; 99 % of control under setting [8]; 101 % of control (dose: 50.0 mg/kg/injection, schedule: Q04DX002 (ip), vehicle: Klucel (hydroxypropylcellulose) (HPC)).
With `CC(CCc1cccc2ccccc12)(C(=O)O)C(=O)O`, the T/C was 90 % of control (dose: 50.0 mg/kg/injection, schedule: Q01DX009 (ip), vehicle: saline sonified); 100 % of control (dose: 100.0 mg/kg/injection, schedule: Q01DX009 (ip), vehicle: saline sonified); 90 % of control (dose: 200.0 mg/kg/injection, schedule: Q01DX009 (ip), vehicle: saline sonified).
As to `C/C(=C\COc1ccc2ccc(=O)oc2c1)C1=CC(=O)C(C)(C)O1`, the T/C by setting is: (dose: 266.0 mg/kg/injection, schedule: Q01DX009 (ip), vehicle: saline with Tween-80) 115 % of control; (dose: 400.0 mg/kg/injection, schedule: Q01DX009 (ip), vehicle: saline with Tween-80) 114 % of control; (dose: 600.0 mg/kg/injection, schedule: Q01DX009 (ip), vehicle: saline with Tween-80) 123 % of control.
For the molecule `Clc1ccc(CSc2ncnc3nc[nH]c23)cc1`, the T/C was 109 % of control (dose: 100.0 mg/kg/injection, schedule: Q04DX003 (ip), vehicle: saline with Tween-80); 104 % of control (dose: 200.0 mg/kg/injection, schedule: Q04DX003 (ip), vehicle: saline with Tween-80); 109 % of control (dose: 400.0 mg/kg/injection, schedule: Q04DX003 (ip), vehicle: saline with Tween-80).
For the molecule `O=C(c1cccnc1)N(Cc1ccccc1)C(=O)c1cccnc1`, the T/C was 99 % of control under setting [9]; 106 % of control (dose: 50.0 mg/kg/injection, schedule: Q01DX001 (ip), vehicle: saline with Tween-80); 100 % of control (dose: 100.0 mg/kg/injection, schedule: Q01DX001 (ip), vehicle: saline with Tween-80); 106 % of control (dose: 200.0 mg/kg/injection, schedule: Q01DX001 (ip), vehicle: saline with Tween-80).
`CNc1cccc(NC)c1`: the T/C by setting is: (dose: 12.5 mg/kg/injection, schedule: Q01DX009 (ip), vehicle: water) 105 % of control; (dose: 25.0 mg/kg/injection, schedule: Q01DX009 (ip), vehicle: water) 112 % of control.
Take `C#CC(C)(C)NC(=O)c1cccnc1Oc1ccccc1`: the T/C reads like this: under setting [1], 99 % of control; under setting [2], 97 % of control; under setting [3], 99 % of control.
On to `COc1cc(/C=C/Cc2cc3c(cc2OCCO)OCO3)cc(OC)c1OC`, for which the T/C was 94 % of control (dose: 60.0 mg/kg/injection, schedule: Q01DX005 (ip), vehicle: saline with Tween-80); 92 % of control (dose: 120.0 mg/kg/injection, schedule: Q01DX005 (ip), vehicle: saline with Tween-80); 101 % of control (dose: 240.0 mg/kg/injection, schedule: Q01DX005 (ip), vehicle: saline with Tween-80).
`Cc1[nH][nH]c(=O)c1C=Nc1ccccc1`: the T/C is, setting by setting: under setting [4], 103 % of control; under setting [5], 100 % of control; under setting [6], 95 % of control.
For the molecule `CCOc1c(N=Nc2cccc([N+](=O)[O-])c2)c(C)nn1C(N)=S`, the T/C runs as follows: (dose: 15.0 mg/kg/injection, schedule: Q01DX005 (ip), vehicle: Klucel + Tween-80) 92 % of control; (dose: 30.0 mg/kg/injection, schedule: Q01DX005 (ip), vehicle: Klucel + Tween-80) 94 % of control.
Regarding `N#CC(CC[N+](=O)[O-])(c1ccccc1)C(c1ccccc1)[N+](=O)[O-]` (stereo not drawn), the T/C is 87 % of control (dose: 12.5 mg/kg/injection, schedule: Q01DX001 (ip), vehicle: saline with Tween-80) and 96 % of control under setting [9].
In the case of `CCP(=S)(CC)[S][Sn]([CH3])([CH3])[S]P(=S)(CC)CC`, the T/C runs as follows: under setting [4], 118 % of control; under setting [5], 115 % of control.
Regarding `CCN(CC)CC[n+]1ccc2c(C)c3[nH]c4ccc(O)cc4c3c(C)c2c1`, the T/C (dose: 1.56 mg/kg/injection, schedule: Q04DX003 (ip), vehicle: saline) is 167 % of control; the T/C (dose: 1.56 mg/kg/injection, schedule: Q04DX003 (ip), vehicle: suspension in saline) was 155 % of control; the T/C (dose: 1.56 mg/kg/injection, schedule: Q04DX003 (ip), vehicle: water) is 156 % of control; the T/C (dose: 3.12 mg/kg/injection, schedule: Q04DX003 (ip), vehicle: saline) was 155 % of control; the T/C (dose: 3.12 mg/kg/injection, schedule: Q04DX003 (ip), vehicle: suspension in saline) was 169 % of control; the T/C (dose: 3.12 mg/kg/injection, schedule: Q04DX003 (ip), vehicle: water) is 161 % of control. Further, the T/C runs as follows: (dose: 6.25 mg/kg/injection, schedule: Q04DX003 (ip), vehicle: saline) 180 % of control and 213 % of control; (dose: 6.25 mg/kg/injection, schedule: Q04DX003 (ip), vehicle: suspension in saline) 169 % of control; (dose: 6.25 mg/kg/injection, schedule: Q04DX003 (ip), vehicle: water) 166 % of control; (dose: 12.5 mg/kg/injection, schedule: Q04DX003 (ip), vehicle: saline) 174 % of control and 177 % of control; (dose: 12.5 mg/kg/injection, schedule: Q04DX003 (ip), vehicle: suspension in saline) 226 % of control; (dose: 12.5 mg/kg/injection, schedule: Q04DX003 (ip), vehicle: water) 181 % of control. Also, the T/C is 194 % of control and 210 % of control (dose: 25.0 mg/kg/injection, schedule: Q04DX003 (ip), vehicle: saline); 164 % of control (dose: 25.0 mg/kg/injection, schedule: Q04DX003 (ip), vehicle: suspension in saline); 178 % of control and 203 % of control (dose: 50.0 mg/kg/injection, schedule: Q04DX003 (ip), vehicle: saline); 180 % of control (dose: 50.0 mg/kg/injection, schedule: Q04DX003 (ip), vehicle: suspension in saline).
As to `OC(CNC1CCCCC1)CO/N=C1\CCSc2c(Cl)cccc21` (stereo not drawn), the T/C is, setting by setting: (dose: 3.12 mg/kg/injection, schedule: Q04DX002 (ip), vehicle: Klucel (hydroxypropylcellulose) (HPC)) 94 % of control; (dose: 6.25 mg/kg/injection, schedule: Q04DX002 (ip), vehicle: Klucel (hydroxypropylcellulose) (HPC)) 99 % of control; under setting [7], 103 % of control; under setting [8], 100 % of control; (dose: 100.0 mg/kg/injection, schedule: Q04DX002 (ip), vehicle: Klucel (hydroxypropylcellulose) (HPC)) 96 % of control; (dose: 200.0 mg/kg/injection, schedule: Q04DX002 (ip), vehicle: Klucel (hydroxypropylcellulose) (HPC)) 87 % of control.
